These results are taken from patent US9394544B2, “Ameliorating oxidative stress in neurodegenerative disease via Nox1 targeting” (University of Central Florida Research Foundation, Inc., priority 2013, dated 2016).

This assay concerns Nox1. The assay is described as follows: Nox1 expression (RT-PCR, immunoblot) in N27 cells exposed to toxins. Format: cell-based, rat. Particulars: N27 cells. From the text: The NADPH oxidase is a multi-subunit enzyme that consists of the catalytic subunits (Nox isoforms) together with the regulatory subunits including p22phox, p47phox, p40phox, p67phox, Nox organizer 1 (Noxo1), Nox activator 1 (Noxa1), and small GTPase Rac1. In order to test whether dopaminergic (DA) cells are equipped with the NOX components, N27, a well-established rat DA cell line was examined (Prasad et al. 1994). The mRNAs encoding each Nox isoform and regulatory subunits were detected using RT-PCR. Since transcriptional induction of Nox1 and Nox4 has already been reported in several tissues under a variety of stimuli, transcripts were determined in both nontreated and 6-hydroxydopamine (6-OHDA), a DA neurodegenerative compound, treated DA cells. ROS generation as induced by 6-OHDA (100 μM) and subsequent cell death was observed. All Nox isoforms (Nox1, Nox2, Nox4, Duox1 and Duox2) except Nox3 and Nox5 were detected (FIG. 1A). […] Mitochondria, which have long been considered as a major source of ROS, play a key role in Nox1-mediated superoxide generation (Desouki et al. 2005). […] Cytoplasmic regulatory subunits including p47phox, Noxa1, and Noxo1 were constitutively expressed in DA cells as well (FIG. 1A). Noxa1 and Noxo1 are homologues of p67phox and p47phox, respectively. They are involved in Nox1-mediated superoxide generation (Banfi et al. 2003, Geiszt et al. 2003). […] The activation of a small GTPase Rac1 is indispensable for Nox1 and Nox2 activation (Bokoch 2002). GTP-bound active Rac1 was measured in DA cells treated with 6-OHDA for various duration from 1 h to 6 h.
Total RNA was extracted from N27 cells using Trizol reagent (Invitrogen, Carlsbad, Calif.). Reverse transcription was performed for 1 h at 42° C. with 1 μg of total RNA using 20 unit/μl of AMV reverse transcriptase (Roche Applied Science, Indianapolis, Ind.), and oligo-p(dT)15 as a primer. The samples were then heated at 99° C. for 5 min to terminate the reaction. The cDNA obtained from 1 μg total RNA was used as a template for PCR amplification. Oligonucleotide primers were designed based on Genebank entries for rat NOX1 (sense, 5′-[…]-3′ SEQ ID NO. 1; antisense, 5′-[…]-3′ SEQ ID NO. 2), rat NOX2 (sense, 5′-[…]-3′ SEQ ID NO. 3; antisense, 5′-[…]-3′ SEQ ID NO. 4), rat NOX4 (sense, 5′-[…]-3′ SEQ ID NO. 5; antisense, 5′-[…]-3′ SEQ ID NO. 6), rat NOXA1 (sense, 5′-[…]-3′ SEQ ID NO. 7; antisense, 5′-[…]-3′ SEQ ID NO. 8), rat NOXO1 (sense, 5′-[…]-3′ SEQ ID NO. 9; antisense, 5′-[…]-3′ SEQ ID NO. 10), rat p47 (sense, 5′-[…]-3′ SEQ ID NO 11; antisense, 5′-[…]-3′ SEQ ID NO. 12), rat Duox1 (sense, 5′-[…]-3′ SEQ ID NO. 13; antisense, 5′-[…]-3′SEQ ID NO. 14), rat Duox2 (sense, 5′-[…]-3′ SEQ ID NO. 15; antisense, 5′-[…]-3′ SEQ ID NO. 16) and rat GAPDH (sense, 5′-[…]-3′ SEQ ID NO. 17; antisense, 5′-[…]-3′ SEQ ID NO. 18). PCR mixes contained 10 μl of 2×PCR buffer, 1.25 mM of each dNTP, 10 pmol of each forward and reverse primer, and 2.5 units of Taq polymerase in the final volume of 20 μl. Amplification was performed in 35 cycles at 60° C., 30 sec; 72° C., 1 min; 94° C., 30 sec. After the last cycle, all samples were incubated for an additional 10 min at 72° C. for final extension step. PCR fragments were analyzed on 1.2% agarose gel in 0.5×TAE containing ethidium bromide. Amplification of GAPDH, a relatively invariant internal reference RNA, was performed in parallel, and cDNA amounts were normalized against GAPDH mRNA levels. The primer set specifically recognized only the gene of interest as indicated by amplification of a single band of expected size. […]
(Immunoblotting shows a protein as a band on a membrane.)

SMILES strings stand for the structures.

Turning to `NCCc1cc(O)c(O)cc1O` [6-OHDA, 6-hydroxydopamine], the “Nox1 mRNA (RT-PCR)” value (100 μM, 6 h) is on record as “robustly induced”. Moreover, the “Nox1 expression (immunoblot)” value (24 h) is given as “induced Nox1 expression in a dose-dependent manner”.
